Test results taken from publication PMC9388626, “STUB1 is an intracellular checkpoint for interferon gamma sensing” (Scientific Reports, 2022).

Legend:
B16-F10 cells [1] = experiment: Gene expression profiling with NanoString PanCancer IO 360; assay type: cell-based, murine; conditions: Stub1-null B16-F10, 0.03 ng ml^−1 IFNγ, 6 h or 24 h
Protocol: After overnight incubation, the culture media were replaced with fresh media (DMEM + 10% FBS) supplemented with 0.03 ng ml^−1 of recombinant mouse IFNγ (R&D Systems, #485-MI-100). Total RNA from untreated cells (24 h) and IFNγ-treated cells (6 or 24 h) were extracted with RNeasy plus mini kit (Qiagen, 74134) according to manufacturer’s protocol. An input of 150 ng RNA from each sample was mixed with the NanoString reporter and capture probes (nCounter Mouse PanCancer IO 360, # XT-CSPS-MIO360-12), and incubated at 65 °C for 20 h. The hybridized samples were processed on the nCounter prep station, and the resulting cartridge was scanned by the nCounter digital analyzer using 555 fields of view. Raw count data were evaluated for quality control and normalized with 19 housekeeping genes using nSolver 4.0 software (Supplementary Table S3). Tlk2 was excluded from the housekeeping gene due to weak expression (RNA counts < 80). […] Weakly expressed genes, where the normalized RNA counts were consistently less than 80 in all samples, were excluded from fold change analysis, resulting in an evaluable set of 493 out of 750 genes (Supplementary Fig. 4a). As an overview, all 750 targeted genes were included in the scatter plot analysis (Supplementary Fig. 4b–d).

PC-3 cells = experiment: Lumit immunoassay, phospho-Tyr701-STAT1; assay type: cell-based, human; conditions: PC-3, PTPN2 or STUB1 loss, 30 min
Protocol: (§1) Parental and CRISPR-edited tumour cells were seeded in a cell density of 12,500 (DU145), 15,000 (PC-3), or 30,000 (MCF7) per well in 384-well plate (Greiner Bio-One, #781080) filled with 25 µl culture media + 10% FBS. After 20–24 h incubation, the cells were treated with recombinant human IFNγ (R&D Systems, #285-IF-100) by adding an equal volume of the complete culture media containing the cytokine. After 30 min of stimulation, the culture media were removed by gentle spin using Blue Washer (BlueCatBio). Lumit immunoassay (Promega, #W1202) was performed according to manufacturer’s instrutions. The assay buffer was supplemented with Halt protease and phosphatase inhibitor cocktail (Thermo Scientific, #78443). The cells were lyzed with 12 µl per well of lysis solution (0.02% digitonin) for 20 min. The cell lystates were probed for 90 min with 12 µl of mixture of primary antibodies, which include anti-STAT1 rabbit antibody (Cell Signaling Technology, #14994), anti-pSTAT1 (Tyr701) mouse antibody (Abcam, ab29045), Lumit anti-mouse antibody-LgBiT (Promega) and Lumit anti-rabbit antibody-SmBiT (Promega). Final concentration of each antibody is 0.15 µg ml^−1. After 2 min incubation in the presence of the Lumit detection reagent (6 µl), the luminescence signals were detected by Infinite M1000 PRO (Tecan).

MCF7 cells = experiment: Lumit immunoassay, phospho-Tyr701-STAT1; assay type: cell-based, human; conditions: MCF7, PTPN2 or STUB1 loss, 30 min
Protocol: as §1

DU145 cells = experiment: Lumit immunoassay, phospho-Tyr701-STAT1; assay type: cell-based, human; conditions: DU145, PTPN2 or STUB1 loss, 30 min
Protocol: as §1

[2] = tested on: B16-F10 tumour in C57BL/6 J mice; experiment: Syngeneic B16-F10 model, GVAX then anti-PD-1; assay type: in vivo, mouse; conditions: N 15, in mm³ (unit assumed)
Protocol: Female C57BL/6 J mice (stock no: 000664, Jackson Laboratory) between 7–8 weeks of age weighing approximately 18–22 g were used for the study. […] One day after tumour inoculation, mice were dosed subcutaneously into the abdomen with 1.0 × 10^6 per 100 µl GM-CSF-secreting B16 (GVAX) cells that had been irradiated with 35 Gy from a ^137Cs source discharging 124 rads min^−1. GVAX treatment was repeated on day 4. […] The treatment was repeated on day 9, 12, and 15. The start of the study where tumour inoculation is conducted is designated as day 0.
Body weights were taken twice per week.

B16-F10 cells [3] = experiment: Flow cytometry, surface level of other cytokine receptors (IL1R1, IL6R, GP130, IFNAR1); assay type: cell-based, murine
Protocol: Cells were dissociated from the wells with 0.25% trypsin (Gibco, 25200056). After rinsing with 0.5 ml PBS, each sample was stained with the LIVE/DEAD Fixable Aqua dead cell staining solution (Life Technologies, L34957) in 100 µl PBS (1:1000 dilution) for 15 min at 4 °C. After rinsing with 2 × 0.5 ml PBS, each sample was stained with the corresponding primary antibody-dye conjugates diluted in 100 µl Pharmingen stain buffer (BD Biosciences, #554657). After 1 h staining at 4 °C, the cells were rinsed with 2 × 2 ml Pharmingen stain buffer and fixed with 4.21% (w/w) formaldehyde (BD Biosciences, #554655). Cells were analyzed on LSRFortessa X-20 (BD Biosciences) with appropiate fluorescence compensation. The data were analyzed using FlowJo. Cells were gated based on FSC and SSC. Single cells were selected using FSC-A and FSC-H and viable cells were selected using LIVE/DEAD signal. Primary antibodies used were: H-2K^b/H-2D^b (FITC, Biolegend, #114606, 1:50 dilution), HLA-A,B,C (FITC, Biolegend, #311404, 1:100 dilution), mouse IFNGR1 (PE, Invitrogen, #12-1191-82, 1:50 dilution), human IFNGR1 (PE, Miltenyi, #130-125-851, 1:50 dilution), mouse IL1R1 (APC, Biolegend, #113509, 1:20 dilution), mouse IL6R (APC, Biolegend, #115812, 1:20 dilution), mouse IFNAR1 (APC, Biolegend, #127314, 1:20 dilution), and mouse GP130 (PE, Biolegend, #149404, 1:100 dilution).

IFNγ
Induction of interferon-stimulated genes (B16-F10 cells [1]): enhanced response to IFNγ treatment | Phosphorylation of Tyr701-STAT1 (PC-3 cells): increased the cells’ response to IFNγ in a dose-dependent manner | Phosphorylation of Tyr701-STAT1 (MCF7 cells): increased the cells’ response to IFNγ in a dose-dependent manner | Phosphorylation of Tyr701-STAT1 (DU145 cells): increased the cells’ response to IFNγ in a dose-dependent manner

gStub1 #1 (guide GCATTGCTAAGAAGAAGCGC; chemistry not given here)
tumour volume (Fig. 6b) ([2]; day 5, Mean): 50.28 | tumour volume (Fig. 6b) ([2]; day 8, Mean): 251.2 | tumour volume (Fig. 6b) ([2]; day 10, Mean): 457.3 | tumour volume (Fig. 6b) ([2]; day 12, Mean): 680.5 | tumour volume (Fig. 6b) ([2]; day 14, Mean): 866 | tumour volume (Fig. 6b) ([2]; day 16, Mean): 944.8 | Surface GP130 (Fig. 2d) (B16-F10 cells [3]; replicate 1): 1.09 | Surface IFNAR1 (Fig. 2d) (B16-F10 cells [3]; replicate 1): 0.74 | Surface IL1R1 (Fig. 2d) (B16-F10 cells [3]; replicate 1): 0.96 | Surface IL6R (Fig. 2d) (B16-F10 cells [3]; replicate 1): 0.93 | Surface GP130 (Fig. 2d) (B16-F10 cells [3]; replicate 2): 1.26 | Surface IFNAR1 (Fig. 2d) (B16-F10 cells [3]; replicate 2): 0.87 | Surface IL1R1 (Fig. 2d) (B16-F10 cells [3]; replicate 2): 0.97 | Surface IL6R (Fig. 2d) (B16-F10 cells [3]; replicate 2): 1.17 | Surface GP130 (Fig. 2d) (B16-F10 cells [3]; replicate 3): 1.41 | Surface IFNAR1 (Fig. 2d) (B16-F10 cells [3]; replicate 3): 1.30 | Surface IL1R1 (Fig. 2d) (B16-F10 cells [3]; replicate 3): 1.05 | Surface IL6R (Fig. 2d) (B16-F10 cells [3]; replicate 3): 1.24 | Surface GP130 (Fig. 2d) (B16-F10 cells [3]; replicate 4): 1.20 | Surface IFNAR1 (Fig. 2d) (B16-F10 cells [3]; replicate 4): 1.03 | Surface IL1R1 (Fig. 2d) (B16-F10 cells [3]; replicate 4): 1.02 | Surface IL6R (Fig. 2d) (B16-F10 cells [3]; replicate 4): 1.10
